Converted amounts (≈) assume the structure as drawn. Like-named read-outs stand apart in the source and are kept apart here.
Experiments:
Human C5 [1] = molecular target: T1, Human C5 (Homo sapiens, UniProt P01031); test: Surface plasmon resonance (SPR), immobilized human C5 (Example 9, Table 18); assay type: binding; details: immobilized human C5, equilibrium dissociation constant; read-out: SPR C5 EQ KD
T1 construct: purchased Complement Technology
From the text: Morrison and Boyd in “Organic Chemistry”, 6th edition, Prentice Hall (1992)] and validated for proper structure by mass spectrometry.

purified human C5 = purified human C5 (Homo sapiens, UniProt P01031); test: Red blood cell (RBC) hemolysis assay, optical, absorbance 412 nm (Example 10, Table 19); assay type: cell-based; details: antibody-sensitized sheep erythrocytes, […] human C5 depleted sera
[2] = Kinetic solubility in PBS pH 7.4, HPLC-UV (Example 21, Table 27); assay type: physicochemical; details: phosphate buffered saline, aqueous buffer, kinetic from dmso stock, 0.5 M PBS, shaken minimum 24 h at approximately 25° C., HPLC-UV 270 nm
Procedure: Compounds were analyzed for kinetic solubility values using a standard kinetic solubility assay format. First, test compounds were dissolved in DMSO (Aldrich Chemical Co., Milwaukee, Wis., USA) at a concentration of 0.010 mol/L and used to prepare standard calibrators in DMSO solution. 500.0 μM, 250.0 μM, 125.0 μM, 62.5 μM, 31.2 μM, and 15.6 μM standards were prepared in a Greiner UV-Star clear V-bottom 96-well plate (Greiner-Bio One, Germany) for generating a standard curve. Using Alfa Aesar's Sodium phosphate, 0.2 M buffer solution, pH 7.4 (Alfa Aesar, Haverhill, Mass., USA), aqueous phosphate buffered saline (PBS) was prepared by diluting with Milli-Q water for a final concentration of 0.05 M. The pH of the solution was adjusted to 7.4±0.1 using 0.1 M hydrochloric acid (Fisher Scientific Waltham, Mass., USA) or 0.1 M aqueous sodium hydroxide (Fisher Scientific Waltham, Mass., USA).
10 μL of 0.010 mol/L DMSO test compound stock solutions were pipetted to separate 1.5 mL centrifuge tubes in triplicate. To these tubes, 190 μl of 0.05 M PBS was added. Each tube was gently vortexed for 5 sec. The tubes were shaken for a minimum of 24 h at approximately 25° C. After shaking, the solutions were transferred to 0.5 mL centrifuge filter tubes (MilliporeSigma, Burlington, Mass., USA) and centrifuged at 10,000 rpm for 5 min. After centrifugation, supernatants were collected and used for compound concentration analysis.
Compound concentrations in each solution were determined using high pressure liquid chromatography (HPLC) with ultraviolet (UV) detection and comparison with external standards. For HPLC, a Waters Acquity CSH Phenyl-Hexyl column (2.1 mm×50 mm, 1.7 μm) was used together with a generic gradient method on a Waters H-class system equipped with a diode array detector: Solvent A=0.1% formic acid in water, Solvent B=0.1% formic acid in acetonitrile (MilliporeSigma, Burlington, Mass., USA), flow=0.65 mL/min, (t=0 min: 95% A-5% B, t=4.75 min: 0% A-100% B, t=4.85 min: 0% A-100% B, t=4.86 min: 95% A-5% B, t=5 min: 95% A-5% B). UV quantifications were performed at 270 nm. Solution concentrations were calculated using Microsoft Excel.

Human C5 [3] = molecular target: T1, Human C5; test: Red blood cell (RBC) hemolysis assay, luminescent (Example 28, Table 32); assay type: cell-based; details: sheep EA cells, 1.5% C5-depleted human serum, 0.5 nM human C5, 1 hour at 37° C., luminescence (Table 32)
[4] = 0.5 nM purified human C5, absorbance 412 nm, read-out: RBC Hemolysis IC50

Chain of purified human C5 (P01031 19-1676): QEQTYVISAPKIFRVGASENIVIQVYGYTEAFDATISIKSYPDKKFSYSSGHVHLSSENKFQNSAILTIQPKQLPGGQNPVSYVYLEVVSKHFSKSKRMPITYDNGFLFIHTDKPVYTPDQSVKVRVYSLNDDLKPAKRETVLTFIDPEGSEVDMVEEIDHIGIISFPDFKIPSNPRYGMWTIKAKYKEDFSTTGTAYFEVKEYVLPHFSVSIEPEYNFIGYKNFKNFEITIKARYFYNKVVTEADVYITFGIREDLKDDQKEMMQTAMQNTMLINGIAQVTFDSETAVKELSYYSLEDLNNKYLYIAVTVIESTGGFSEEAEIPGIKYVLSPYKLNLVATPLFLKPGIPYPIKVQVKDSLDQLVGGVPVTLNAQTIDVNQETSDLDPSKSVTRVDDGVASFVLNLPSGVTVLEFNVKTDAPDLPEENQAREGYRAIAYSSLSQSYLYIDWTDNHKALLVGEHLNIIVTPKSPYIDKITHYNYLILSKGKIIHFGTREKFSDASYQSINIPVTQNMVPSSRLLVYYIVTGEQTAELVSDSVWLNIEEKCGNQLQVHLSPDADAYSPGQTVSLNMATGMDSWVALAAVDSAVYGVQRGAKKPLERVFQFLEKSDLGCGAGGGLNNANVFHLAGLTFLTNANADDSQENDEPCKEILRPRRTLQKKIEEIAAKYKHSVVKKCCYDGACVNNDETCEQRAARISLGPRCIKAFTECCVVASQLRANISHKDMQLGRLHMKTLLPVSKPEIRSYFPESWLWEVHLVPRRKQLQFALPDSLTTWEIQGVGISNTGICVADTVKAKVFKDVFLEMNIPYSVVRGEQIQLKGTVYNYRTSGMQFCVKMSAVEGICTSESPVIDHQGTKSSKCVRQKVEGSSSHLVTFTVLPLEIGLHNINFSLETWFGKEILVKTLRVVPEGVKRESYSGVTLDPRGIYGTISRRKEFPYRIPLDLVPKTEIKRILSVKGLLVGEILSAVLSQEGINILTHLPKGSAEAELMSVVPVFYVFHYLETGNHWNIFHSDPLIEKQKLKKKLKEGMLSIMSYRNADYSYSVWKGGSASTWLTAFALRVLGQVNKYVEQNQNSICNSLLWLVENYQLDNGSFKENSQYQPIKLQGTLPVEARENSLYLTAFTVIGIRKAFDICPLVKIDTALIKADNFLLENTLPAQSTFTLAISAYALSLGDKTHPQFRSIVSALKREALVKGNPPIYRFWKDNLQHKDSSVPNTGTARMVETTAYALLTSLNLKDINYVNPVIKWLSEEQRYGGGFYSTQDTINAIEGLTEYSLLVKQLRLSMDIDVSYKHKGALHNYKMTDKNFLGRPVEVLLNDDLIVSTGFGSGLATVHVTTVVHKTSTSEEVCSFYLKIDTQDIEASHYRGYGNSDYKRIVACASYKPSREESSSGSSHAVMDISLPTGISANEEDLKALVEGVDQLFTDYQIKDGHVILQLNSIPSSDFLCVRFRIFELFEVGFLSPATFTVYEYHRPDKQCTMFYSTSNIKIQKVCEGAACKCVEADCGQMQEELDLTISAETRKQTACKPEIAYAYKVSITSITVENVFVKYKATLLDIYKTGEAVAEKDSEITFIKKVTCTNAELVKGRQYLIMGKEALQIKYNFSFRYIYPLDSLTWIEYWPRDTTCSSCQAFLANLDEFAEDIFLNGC
T1 sequence (P01031 19-1676): as above

Row | Compound | Kd (Human C5 [1]) | IC50 (purified human C5; [4]) | IC50 (purified human C5; 0.5 nM human C5, read-out: IC50) | solubility kinetic [2] | IC50 (Human C5 [3])
1 | COc1ccc(OC)c(CNC(=O)Nc2ccc(OC)c(OCCCC(C)C)c2)c1 [Compound C5INH-0296] | 20 nM | 680 nM | – | – | –
2 | COc1cc(F)ccc1CNC(=O)Nc1ccc(OC)c(OCCCC(C)C)c1 [Compound C5INH-0298] | 550 nM | 269 nM | – | – | –
3 | COc1ccc(NC(=O)NCc2cccc(C(=N)N)c2)cc1OCCCC(C)C [Compound C5INH-0303] | 710 nM | 2940 nM | – | – | –
4 | COc1ccc(NC(=O)NCc2cccnc2OC)cc1OCCCC(C)C [Compound C5INH-0310] | 40 nM | 203 nM | – | – | –
5 | COc1ccc(NC(=O)NCc2ccc(O)cc2O)cc1OCCCC(C)C [Compound C5INH-0311] | 20 nM | 27 nM | – | – | –
6 | COc1ccc(NC(=O)NC(CO)c2cc(F)ccc2O)cc1OCCCC(C)C (centres unmarked) [Compound C5INH-0315] | 50 nM | 13.7 nM | < 20 nM | – | –
7 | COc1ccc(NC(=O)NC(CO)c2cccnc2OC)cc1OCCCC(C)C (centres unmarked) [Compound C5INH-0316] | 58 nM | 60 nM | – | – | –
8 | COc1ccc(NC(=O)NCc2cccc3nc[nH]c23)cc1OCCCC(C)C [Compound C5INH-0317] | 190 nM | 319 nM | – | – | –
9 | COc1ccc(NC(=O)NCc2ccc(OCCN(C)C)cc2)cc1OCCCC(C)C [Compound C5INH-0318] | 313 nM | 251 nM | – | – | –
10 | COc1ccc(NC(=O)NCc2cccc(CN3CCCC3=O)c2)cc1OCCCC(C)C [Compound C5INH-0323] | 731 nM | 1920 nM | – | – | –
11 | COc1ccc(NC(=O)NCc2c(F)cccc2OC)cc1OCCCC(C)C [Compound C5INH-0326] | 260 nM | 784 nM | – | – | –
12 | COc1ccc(NC(=O)NCc2cncs2)cc1OCCCC(C)C [Compound C5INH-0329] | 3200 nM | 4010 nM | – | – | –
13 | COc1ccc(NC(=O)NCc2ccc3c(c2)OCO3)cc1OCCCC(C)C [Compound C5INH-0330] | 2900 nM | 2660 nM | – | – | –
14 | COc1ccc(NC(=O)NCc2ccnc(N)c2)cc1OCCCC(C)C [Compound C5INH-0333] | 98 nM | 442 nM | – | – | –
15 | COCCOc1ccccc1CNC(=O)Nc1ccc(OC)c(OCCCC(C)C)c1 [Compound C5INH-0335] | 180 nM | 2090 nM | – | – | –
16 | COc1ccc(NC(=O)N[C@@H](CO)c2ccccc2)cc1NCCCC(C)C [Compound C5INH-0336] | 164 nM | 473 nM | – | – | –
17 | COc1ccc(NC(=O)NCc2ccccc2OCCC2CCOC2)cc1OCCCC(C)C (centres unmarked) [Compound C5INH-0338] | 195 nM | 4370 nM | – | – | –
18 | CCOc1ccccc1CNC(=O)Nc1ccc(OC)c(OCCCC(C)C)c1 [Compound C5INH-0339] | 52 nM | 878 nM | – | – | –
19 | COc1ccc(NC(=O)NCc2ccc3c(c2)OCCO3)cc1OCCCC(C)C [Compound C5INH-0340] | 75 nM | 992 nM | – | – | –
20 | COc1ccc(NC(=O)NCc2cccc(CO)c2)cc1OCCCC(C)C [Compound C5INH-0342] | 180 nM | 1540 nM | – | – | –
21 | CCCCCOc1cc(N2CC[C@H](C)N(Cc3ccnc4c3c(Cl)cn4CC(=O)N3CCO[C@H](COC)C3)C2=O)ccc1OC [SC0127] | – | – | – | < 10 µM | 1.7 nM
22 | COc1cc(CC(=O)N2CCN(C)CC2)ccc1CN1C(=O)N(c2ccc(OC)c(OCCCC3CC3)c2)CC[C@@H]1C [SC0137] | – | – | – | 275 µM (≈ 159 µg/mL) | 1.8 nM
23 | COc1cc(CC(=O)N2CCNC(=O)C2)ccc1CN1CC(C)CN(c2ccc(OC)c(OCCCC3CC3)c2)C1=O (centres unmarked) [SC0158] | – | – | – | 16 µM (≈ 9.26 µg/mL) | 2.7 nM
24 | COc1cc(CCN2CCS(=O)(=O)CC2)ccc1CN1C(=O)N(c2ccc(OC)c(OCCCC3CC3)c2)CC[C@@H]1C [SC0162] | – | – | – | < 10 µM | 2.8 nM
25 | CCCCCOc1cc(N2CC[C@@H](C)N(Cc3cccc4[nH]cc(Cl)c34)C2=O)ccc1OC [SC0167] | – | – | – | < 10 µM | 3.2 nM
26 | CCCCCOc1cc(N2CC(C(N)=O)CN(Cc3ccc(CC(=O)N(C)C)cc3OC)C2=O)ccc1OC (centres unmarked) [SC0204] | – | – | – | 465 µM (≈ 251 µg/mL) | 10.9 nM

From US20230115176A1 (Ra Pharmaceuticals, Inc., priority 2019, published 2023)
